Literature values as cited in patent US10045978B2 (AB SCIENCE, priority 2010, dated 2018).
Like-named read-outs stand apart in the source and are kept apart here.

What was measured:
[1] = system: patients with WHO-defined systemic mastocytosis (SM); conditions: cited from earlier work
mastocytosis patients = conditions: in vivo; cited from earlier work
[2] = system: indolent mastocytosis patients; conditions: cited from earlier work
patients = conditions: of patients; cited from earlier work
[3] = system: mast cells carrying the D816V c-Kit mutation; conditions: in vitro; cited from earlier work
[4] = entire evaluable study population (N=108)
[5] = patients with indolent SM (N=22)

Molecule | major response rate [1, 4] [%] | overall response rate [1, 4] [%] | overall response rate [1, 5] [%] | cases with reduced mast cell tumor burden (mastocytosis patients) | overall response rate ([1]; c-Kit D816V positive SM patients) [%] | patients reporting symptomatic improvements [2] | grade 4 neutropaenia (patients) [%] | response of mast cells carrying the D816V c-Kit mutation [3]
interferon-alpha | 18 | 53 | 60 | – | – | – | – | –
Nc1nc(Cl)nc2c1ncn2[C@H]1C[C@H](O)[C@@H](CO)O1 [Cladribine] | 37 | 55 | 56 | up to 50% | – | – | – | –
Cc1ccc(NC(=O)c2ccc(CN3CCN(C)CC3)cc2)cc1Nc1nccc(-c2cccnc2)n1 [imatinib] | 9 | 18 | 14 | – | 17 | 6/11 | 5 | resistant
NC(=O)NO [hydroxyurea] | 0 | 19 | 0 | – | – | – | – | –
